Holding throughout (type): binding
The test system of one experiment is RNA duplex 1. In words: CD analysis of RNA duplex with peptides/depsipeptides. The conditions noted are these: RNA duplex 5 µM, peptide/depsipeptide 0–10 µM, MES-TEA buffer (60 mM). From the text: The gel was cropped at the edges for clarity. […] […] Red and blue colors of the filled circles correspond to curves of the same color in panel (c). […] […] Scans were from 320 nm to 220 nm with a bandwidth of 5 nm, data pitch of 0.2 nm, and scan rate of 50 nm/min with three accumulations. […] Data were collected in independent triplicates and the data were averaged. Finally, data were smoothed and plotted using Matlab.

The subject of experiment [1] is RNA duplex 3 (5′-rArArCrGrUrArUrArCrGrUrU-3′, palindromic). The experiment in a line: RNA thermal denaturation (Tm) by UV hyperchromicity, RNA duplex 3. The conditions noted are these: for RNA duplex 3 Tm: observed Tm with peptide/depsipeptide 100 µM, pH 7.0, RNA alone 48.6 ± 0.7, mean ± SD of 2-4 independent experiments; for RNA duplex 3 ΔTm: peptide/depsipeptide 100 μM, 5.0 μM palindromic strand, pH 7.0, 10 mM phosphate, 100 mM NaCl, mean of 2–4 replicates. As to the method: (§1) Prior to Tm analyses, RNA samples were annealed in the appropriate buffer by heating to 75 °C and slowly cooling to room temperature. Depsipeptide/peptide was added to the annealed RNA and incubated at 4 °C for 20 min prior to carrying out the analysis. For analyses involving dry-down reaction mixtures, the Tm was determined by monitoring fluorescence increase upon melting of a fluorophore/quencher-labeled RNA duplex (5′-rCrGrArUrUrUrArGrCrG-/3IABkFQ/-3′ and 3′-rGrCrUrArArArUrCrGrC-FAM-5′) using a BioRad CFX Connect rtPCR instrument with a heating ramp of 1 °C/min and 20 μL final sample volumes. For analyses involving pure, synthetic compounds, the Tm of the RNA was determined by monitoring UV hyperchromicity at 260 nm using a Varian Cary Bio-100 spectrophotometer, with a heating ramp of 1 °C/min and 0.5- or 1-cm pathlength cells. The following RNA sequences were used: RNA duplex 1 = 5′-rCrGrCrUrArArArUrCrG-3′ and 5′-rCrGrArUrUrUrArGrCrG-3′; RNA duplex 2 = 5′-rArArArArUrUrUrArUrArUrUrArUrUrA-3′ and 5′-rUrArArUrArArUrArUrArArArUrUrUrU-3′; RNA duplex 3 = 5′-rArArCrGrUrArUrArCrGrUrU-3′ (palindromic); and H26a RNA = 5′-rArUrGrArGrUrArArCrCrGrUrArArGrGrUrGrArArArUrU-3′. RNA was present in each assay at a final concentration of 2.5 μM of the folded structure (2.5 μM each strand for duplex 1 and duplex 2, 5.0 μM palindromic strand for duplex 3, 2.5 μM strand for H26a RNA). Tm values were determined by nonlinear fitting of the melting curves using GraphPad Prism 8.2.1 for duplex 1 and H26a, or by finding the maximum of the first derivative of the curve using the Varian Cary Bio-100 software for duplex 2 and duplex 3. Both methods of determining the Tm gave similar values for a given denaturation curve.

The subject of experiment [2] is RNA duplex 2 (5′-rArArArArUrUrUrArUrArUrUrArUrUrA-3′ and 5′-rUrArArUrArArUrArUrArArArUrUrUrU-3′). In words: RNA thermal denaturation (Tm) by UV hyperchromicity, RNA duplex 2. As to conditions: for RNA duplex 2 Tm: observed Tm with peptide/depsipeptide 100 µM, pH 7.0, RNA alone 33.7 ± 0.7, mean ± SD of 2-4 independent experiments; for RNA duplex 2 ΔTm: peptide/depsipeptide 100 μM, RNA 2.5 μM each strand, pH 7.0, 10 mM phosphate, 100 mM NaCl, mean of 2–4 replicates. As to the method: as §1

The test system of experiment [3] is RNA duplex 1 (5′-rCrGrCrUrArArArUrCrG-3′ & 5′-rCrGrArUrUrUrArGrCrG-3′). In words: RNA thermal denaturation (Tm) by UV hyperchromicity at 260 nm with synthetic peptides/depsipeptides, RNA duplex 1. The conditions noted are these: 100 mM NaCl; for RNA duplex 1 Tm: observed Tm with peptide/depsipeptide 100 µM, mean ± SD of 2-4 independent experiments; for RNA duplex 1 ΔTm: peptide/depsipeptide 100 μM, RNA 2.5 μM each strand, mean of 2–4 replicates. As to the method:
Each sample contained RNA duplex 1 (5′-rCrGrCrUrArArArUrCrG-3′ and 5′-rCrGrArUrUrUrArGrCrG-3′, 2.5 μM strand) and peptide/depsipeptide (100 μM) in buffered solution (10 mM phosphate, 100 mM NaCl, pH 7.0 or 10 mM acetate, 100 mM NaCl, pH 5.0). a Structures of depsipeptides used to systematically characterize cationic side chain effects on RNA duplex stability. Lactic acid residues are highlighted. Ac acetyl, Aba acetamidobenzoic acid, which was appended to the N-terminus to increase UV absorbance. b Structures of the Fmoc-didepsipeptide building blocks used for solid-phase synthesis of depsipeptide sequences. Fmoc fluorenylmethoxycarbonyl. c Comparative effects of oligo-didepsipeptide sequences 2–6 and analogous oligo-dipeptide and on the Tm of the RNA duplex (number of independent measurements: n = 3 for Arg and Lys sequences; n = 2 for His and Dab sequences; n = 4 for Orn sequences). The shaded areas correspond to the mean ± SD Tm measured for the RNA duplex alone (n = 16 independent measurements). Data are shown as a scatter plot with mean ± SD. d Comparative effects on RNA duplex Tm of depsipeptide sequences containing a single backbone ester (number of independent measurements: n = 3 for Arg; n = 2 for His, Orn, and Dab; n = 4 for Lys), relative to RNA duplex alone (n = 16 independent measurements). Data are shown as a scatter plot with mean ± SD. e To assess the impact of different cationic side chains on depsipeptide degradation rates, depsipeptides 7–11 (40 μM) were incubated at 37 °C in buffer (100 mM HEPES, 10 mM NaCl, pH 7.3). After 5 min, the reactions were quenched by the addition of 3% TFA, and samples were analyzed by HPLC.
as §1, with “3.” for “3. Both methods of determining the Tm gave similar values for a given denaturation curve.”

Experiment [4] deals with H26a RNA (5′-rArUrGrArGrUrArArCrCrGrUrArArGrGrUrGrArArArUrU-3′). In words: RNA thermal denaturation (Tm) by UV hyperchromicity, H26a RNA hairpin. As to conditions: for H26a RNA Tm: observed Tm with peptide/depsipeptide 100 µM, pH 7.0, RNA alone 53.4 ± 0.5, mean ± SD of 2-4 independent experiments; for H26a RNA ΔTm: peptide/depsipeptide 100 μM, RNA 2.5 μM strand, pH 7.0, 10 mM phosphate, 100 mM NaCl, mean of 2–4 replicates. As to the method:
as §1

Setting [5] is: pH 7.0, 10 mM phosphate, RNA alone 43.8 ± 0.4.
Setting [6] is: 10 mM phosphate, pH 7.0, vs RNA alone at matched pH.
[7] abbreviates: pH 5.0, 10 mM acetate, RNA alone 41.5 ± 0.3.
Where [8] appears, read: 10 mM acetate, pH 5.0, vs RNA alone at pH 5.0.

Non-standard residues stand in square brackets, D forms with d. Residues, ends and D or L forms follow the SMILES beside them. Dab = NCC[C@H](N)C(=O)O

`CC(=O)N[C@@H](Cc1ccc(O)cc1)C(=O)NCC(=O)N[C@@H](C)C(=O)N[C@@H](CCN)C(=O)N[C@@H](CCCCN)C(N)=O` [Ac-Tyr-Gly-Ala-Dab-Lys-NH2] (Ac-YGA[Dab]K-NH2): the “changes in CD spectra of the RNA duplex upon addition” value in the experiment with RNA duplex 1 was “physical association”.

Consider “Aba-Orn-lac-Orn-lac-Orn-lac-Orn-lac-Orn-lac-Orn-lac-Orn-lac-Orn-lac-NH2 [compound 5]”, for which, in experiment [1], the “RNA duplex 3 Tm” value worked out at 49.1 ± 0.1 °C and the “RNA duplex 3 ΔTm” value was found to be 0.5 °C. In experiment [2], the “RNA duplex 2 Tm” value was 34.6 ± 0.7 °C and the “RNA duplex 2 ΔTm” value is 1.0 °C. In addition, the “RNA duplex 1 Tm” value in experiment [3] (setting [5]) was found to be 43.8 ± 0.9 °C. For the same compound, the “RNA duplex 1 ΔTm” value in experiment [3] (setting [6]) came to 0.0 °C. Further, in experiment [4], the “H26a RNA Tm” value amounted to 52.3 ± 0.6 °C and the “H26a RNA ΔTm” value is −1.1 °C.

With “Aba-Gly-Ala-Dab-Lys-Ala-Dab-Orn-lac-Dab-Lys-Ala-Dab-Lys-NH2 [compound 10]”, in experiment [1], the “RNA duplex 3 Tm” value amounted to 51.1 ± 1.3 °C and the “RNA duplex 3 ΔTm” value stood at 2.5 °C. For the same compound, in experiment [2], the “RNA duplex 2 Tm” value amounted to 41.8 ± 0.5 °C and the “RNA duplex 2 ΔTm” value amounted to 8.2 °C. Also, in experiment [3] (setting [5]), the “RNA duplex 1 Tm” value amounted to 48.7 ± 1.2 °C. Also, in experiment [3] (setting [6]), the “RNA duplex 1 ΔTm” value turned out to be 4.9 °C. In experiment [4], the “H26a RNA Tm” value was found to be 56.9 ± 0.1 °C and the “H26a RNA ΔTm” value was 3.5 °C.

As to “Aba-Gly-Ala-Dab-Lys-Ala-Dab-Dab-lac-Dab-Lys-Ala-Dab-Lys-NH2 [compound 11]”, in experiment [3] (setting [5]), the “RNA duplex 1 Tm” value amounted to 48.7 ± 0.2 °C. Also, the “RNA duplex 1 ΔTm” value in experiment [3] (setting [6]) was determined as 4.9 °C.

Turning to “Aba-Arg-lac-Arg-lac-Arg-lac-Arg-lac-Arg-lac-Arg-lac-Arg-lac-Arg-lac-NH2 [compound 2]”, in experiment [3] (setting [5]), the “RNA duplex 1 Tm” value stood at 49.1 ± 0.7 °C. For the same compound, in experiment [3] (setting [6]), the “RNA duplex 1 ΔTm” value was found to be 5.3 °C.

“Aba-Lys-lac-Lys-lac-Lys-lac-Lys-lac-Lys-lac-Lys-lac-Lys-lac-Lys-lac-NH2 [compound 4]”: in experiment [1], the “RNA duplex 3 Tm” value worked out at 52.5 ± 0.7 °C and the “RNA duplex 3 ΔTm” value came out at 3.9 °C. In experiment [2], the “RNA duplex 2 Tm” value worked out at 35.2 ± 0.1 °C and the “RNA duplex 2 ΔTm” value came out at 1.5 °C. For the same compound, the “RNA duplex 1 Tm” value in experiment [3] (setting [5]) is 46.4 ± 0.1 °C. The “RNA duplex 1 ΔTm” value in experiment [3] (setting [6]) is 2.6 °C. In experiment [4], the “H26a RNA Tm” value stood at 59.7 ± 0.6 °C and the “H26a RNA ΔTm” value came to 6.3 °C.

With “Aba-His-lac-His-lac-His-lac-His-lac-His-lac-His-lac-His-lac-His-lac-NH2 [compound 3]”, the “RNA duplex 1 Tm” value in experiment [3] (setting [7]) is 46.1 ± 0.7 °C; in experiment [3] (setting [5]), 44.3 ± 1.0 °C. For the same compound, the “RNA duplex 1 ΔTm” value in experiment [3] (setting [8]) turned out to be 4.6 °C; in experiment [3] (setting [6]) it was 0.5 °C.

In the case of “Aba-Gly-Ala-Dab-Lys-Ala-Dab-His-lac-Dab-Lys-Ala-Dab-Lys-NH2 [compound 8]”, the “RNA duplex 1 Tm” value in experiment [3] (setting [7]) was determined as 52.6 ± 0.2 °C; in experiment [3] (setting [5]), 48.9 ± 1.4 °C. For the same compound, the “RNA duplex 1 ΔTm” value in experiment [3] (setting [8]) is 11.1 °C; in experiment [3] (setting [6]) it was 5.1 °C.

Turning to “Aba-Dab-lac-Dab-lac-Dab-lac-Dab-lac-Dab-lac-Dab-lac-Dab-lac-Dab-lac-NH2 [compound 6]”, in experiment [1], the “RNA duplex 3 Tm” value was found to be 48.2 ± 0.1 °C and the “RNA duplex 3 ΔTm” value is −0.4 °C. Moreover, in experiment [2], the “RNA duplex 2 Tm” value was 36.2 ± 0.1 °C and the “RNA duplex 2 ΔTm” value came to 2.6 °C. For the same compound, in experiment [3] (setting [5]), the “RNA duplex 1 Tm” value worked out at 44.2 ± 0.2 °C. The “RNA duplex 1 ΔTm” value in experiment [3] (setting [6]) is 0.4 °C. For the same compound, in experiment [4], the “H26a RNA Tm” value was 53.9 ± 0.2 °C and the “H26a RNA ΔTm” value amounted to 0.5 °C.

On to “Aba-Gly-Ala-Dab-Lys-Ala-Dab-Arg-lac-Dab-Lys-Ala-Dab-Lys-NH2 [compound 7]”, for which, in experiment [1], the “RNA duplex 3 Tm” value was determined as 60.6 ± 0.8 °C and the “RNA duplex 3 ΔTm” value worked out at 12.0 °C. Also, in experiment [2], the “RNA duplex 2 Tm” value is 41.8 ± 0.6 °C and the “RNA duplex 2 ΔTm” value worked out at 8.1 °C. Moreover, the “RNA duplex 1 Tm” value in experiment [3] (setting [5]) turned out to be 52.5 ± 0.3 °C. The “RNA duplex 1 ΔTm” value in experiment [3] (setting [6]) came out at 8.7 °C. In experiment [4], the “H26a RNA Tm” value amounted to 64.8 ± 0.1 °C and the “H26a RNA ΔTm” value worked out at 11.4 °C.

The values are drawn from paper PMC7305224, “Mutually stabilizing interactions between proto-peptides and RNA” (Nature Communications, 2020).
